Converted amounts (≈) assume the structure as drawn.

What all share (type): functional
Assay [1] deals with Pseudomonas aeruginosa. As to the kind of experiment: Antibacterial activity against Pseudomonas aeruginosa PS18. To be noted: Pseudomonas aeruginosa; read-out: MIC.
In assay [2] the test system is Enterobacter cloacae. As to the kind of experiment: Antibacterial activity against Enterobacter cloacae 265A. The following applies: Enterobacter cloacae; read-out: MIC.
For assay [3], the system named is Klebsiella pneumoniae. As to the kind of experiment: microbe, parasite or virus in culture. To be noted: Klebsiella pneumoniae; read-out: MIC.
Description: Antibacterial activity against Klebsiella pneumoniae 1082E
The test system of the next assay is Serratia marcescens. Description: Antibacterial activity against Serratia marcescens SE3. The following applies: Serratia marcescens; read-out: MIC.
Another assay has as its system Streptococcus pyogenes. As to the kind of experiment: Antibacterial activity against Streptococcus pyogenes.
Assay [4] concerns Staphylococcus aureus. As to the kind of experiment: Antibacterial activity against penicillin G susceptible Staphylococcus aureus. The following applies: Staphylococcus aureus; read-out: MIC.
Assay [5] concerns Enterobacter cloacae. As to the kind of experiment: Antibacterial activity against Enterobacter cloacae EB5. To be noted: Enterobacter cloacae; read-out: MIC.
Another assay relates to Enterococcus faecium. As to the kind of experiment: Antibacterial activity against Enterococcus faecium. The following applies: Enterococcus faecium; read-out: MIC.
In assay [6] the test system is Staphylococcus aureus. As to the kind of experiment: Antibacterial activity against penicillin G resistance Staphylococcus aureus. To be noted: Staphylococcus aureus; read-out: MIC.
Another assay deals with Streptococcus pneumoniae. As to the kind of experiment: Antibacterial activity against Streptococcus pneumoniae. The following applies: Streptococcus pneumoniae; read-out: MIC.
Assay [7] relates to Pseudomonas aeruginosa. Description: Antibacterial activity against Pseudomonas aeruginosa X528.
The test system of assay [8] is Escherichia coli. Description: Antibacterial activity against Escherichia coli EC14. The following applies: Escherichia coli; read-out: MIC.
Assay [9] has as its system Escherichia coli. As to the kind of experiment: Antibacterial activity against Escherichia coli TEM. To be noted: Escherichia coli; read-out: MIC.
In assay [10] the test system is Klebsiella pneumoniae. Description: Antibacterial activity against Klebsiella pneumoniae X26. To be noted: Klebsiella pneumoniae; read-out: MIC.
Setting [11] is: Streptococcus pyogenes, read-out: MIC.
[12] abbreviates: Pseudomonas aeruginosa, read-out: MIC.

On to `CO/N=C(\C(=O)N[C@@H]1C(=O)N2C(C(=O)[O-])=C(C[n+]3ccc4nc(C(C)(C)C)sc4c3)CS[C@H]12)c1csc(N)n1`, for which the MIC in the assay on Pseudomonas aeruginosa [1] came out at 128 µg/mL (≈ 218 µM); in the assay on Enterobacter cloacae [2], 16 µg/mL (≈ 27.2 µM); in the assay with Klebsiella pneumoniae [3], 4 µg/mL (≈ 6.81 µM); in the assay with Serratia marcescens, 2 µg/mL (≈ 3.4 µM); with Streptococcus pyogenes (setting [11]), 0.015 µg/mL (≈ 0.0255 µM); with Staphylococcus aureus [4] it was 1 µg/mL (≈ 1.7 µM). Also, the MIC is 1 µg/mL (≈ 1.7 µM) with Enterobacter cloacae [5], 128 µg/mL (≈ 218 µM) with Enterococcus faecium, 4 µg/mL (≈ 6.81 µM) with Staphylococcus aureus [6] and 0.015 µg/mL (≈ 0.0255 µM) with Streptococcus pneumoniae.

`CO/N=C(\C(=O)N[C@@H]1C(=O)N2C(C(=O)[O-])=C(C[n+]3ccc4c(S(=O)(=O)O)cccc4c3)CS[C@H]12)c1csc(N)n1`: the MIC in the assay with Pseudomonas aeruginosa [7] (setting [12]) is 32 µg/mL (≈ 52.9 µM); with Pseudomonas aeruginosa [1], 16 µg/mL (≈ 26.5 µM); in the assay on Enterobacter cloacae [2] it was 64 µg/mL (≈ 106 µM); in the assay on Escherichia coli [8], 0.015 µg/mL (≈ 0.0248 µM); in the assay with Klebsiella pneumoniae [3], 32 µg/mL (≈ 52.9 µM); in the assay on Serratia marcescens it was 0.25 µg/mL (≈ 0.413 µM). Further, the MIC in the assay with Escherichia coli [9] was 0.03 µg/mL (≈ 0.0496 µM); against Streptococcus pyogenes it was 0.015 µg/mL (≈ 0.0248 µM); in the assay with Staphylococcus aureus [4], 4 µg/mL (≈ 6.62 µM); in the assay with Klebsiella pneumoniae [10], 0.03 µg/mL (≈ 0.0496 µM); with Enterobacter cloacae [5] it was 0.25 µg/mL (≈ 0.413 µM); in the assay on Enterococcus faecium, over 128 µg/mL. In addition, the MIC in the assay with Staphylococcus aureus [6] was 8 µg/mL (≈ 13.2 µM); in the assay on Streptococcus pneumoniae, 0.015 µg/mL (≈ 0.0248 µM).

Take `CO/N=C(\C(=O)N[C@@H]1C(=O)N2C(C(=O)[O-])=C(C[n+]3csc4c3CCCC4)CS[C@H]12)c1csc(N)n1`: the MIC with Pseudomonas aeruginosa [7] (setting [12]) was 4 µg/mL (≈ 7.48 µM); in the assay on Pseudomonas aeruginosa [1] it was 16 µg/mL (≈ 29.9 µM); in the assay on Enterobacter cloacae [2] it was 1 µg/mL (≈ 1.87 µM); in the assay with Escherichia coli [8], 0.06 µg/mL (≈ 0.112 µM); in the assay with Klebsiella pneumoniae [3], 2 µg/mL (≈ 3.74 µM); with Serratia marcescens, 0.125 µg/mL (≈ 0.234 µM). Also, the MIC in the assay on Escherichia coli [9] was 0.03 µg/mL (≈ 0.0561 µM); in the assay with Streptococcus pyogenes (setting [11]) it was 0.03 µg/mL (≈ 0.0561 µM); with Staphylococcus aureus [4], 1 µg/mL (≈ 1.87 µM); in the assay with Klebsiella pneumoniae [10], 0.03 µg/mL (≈ 0.0561 µM); with Enterobacter cloacae [5], 0.125 µg/mL (≈ 0.234 µM); with Enterococcus faecium it was 16 µg/mL (≈ 29.9 µM). For the same compound, the MIC in the assay with Staphylococcus aureus [6] was determined as 2 µg/mL (≈ 3.74 µM); with Streptococcus pneumoniae it was 0.03 µg/mL (≈ 0.0561 µM).

In the case of `CO/N=C(\C(=O)N[C@@H]1C(=O)N2C(C(=O)[O-])=C(C[n+]3ccc4[nH]c(-c5ccccc5)nc4c3)CS[C@H]12)c1csc(N)n1`, the MIC with Pseudomonas aeruginosa [1] came out at 128 µg/mL (≈ 217 µM); in the assay on Klebsiella pneumoniae [3], 2 µg/mL (≈ 3.39 µM); in the assay on Serratia marcescens, 1 µg/mL (≈ 1.69 µM); with Streptococcus pyogenes (setting [11]) it was 0.008 µg/mL (≈ 0.0135 µM); in the assay with Staphylococcus aureus [4] it was 2 µg/mL (≈ 3.39 µM); in the assay with Klebsiella pneumoniae [10], 0.015 µg/mL (≈ 0.0254 µM). For the same compound, the MIC was found to be 0.5 µg/mL (≈ 0.847 µM) in the assay on Enterobacter cloacae [5], 128 µg/mL (≈ 217 µM) with Enterococcus faecium, 8 µg/mL (≈ 13.5 µM) with Staphylococcus aureus [6] and 0.008 µg/mL (≈ 0.0135 µM) with Streptococcus pneumoniae.

As for `CO/N=C(\C(=O)N[C@@H]1C(=O)N2C(C(=O)[O-])=C(C[n+]3ccc4[nH]c(-c5cccs5)nc4c3)CS[C@H]12)c1csc(N)n1`, the MIC with Pseudomonas aeruginosa [1] was determined as 128 µg/mL (≈ 215 µM); in the assay on Klebsiella pneumoniae [3], 4 µg/mL (≈ 6.7 µM); in the assay with Serratia marcescens, 1 µg/mL (≈ 1.68 µM); in the assay with Streptococcus pyogenes (setting [11]) it was 0.008 µg/mL (≈ 0.0134 µM); in the assay on Staphylococcus aureus [4], 2 µg/mL (≈ 3.35 µM); in the assay on Klebsiella pneumoniae [10] it was 0.015 µg/mL (≈ 0.0251 µM). Further, the MIC was 0.5 µg/mL (≈ 0.838 µM) with Enterobacter cloacae [5], 128 µg/mL (≈ 215 µM) in the assay with Enterococcus faecium, 8 µg/mL (≈ 13.4 µM) with Staphylococcus aureus [6] and 0.008 µg/mL (≈ 0.0134 µM) in the assay on Streptococcus pneumoniae.

As to `CO/N=C(\C(=O)N[C@@H]1C(=O)N2C(C(=O)[O-])=C(C[n+]3ccc4scnc4c3)CS[C@H]12)c1csc(N)n1`, the MIC worked out at 1 µg/mL (≈ 1.88 µM) in the assay on Pseudomonas aeruginosa [7] (setting [12]); 4 µg/mL (≈ 7.52 µM) in the assay on Pseudomonas aeruginosa [1]; 8 µg/mL (≈ 15 µM) with Enterobacter cloacae [2]; 0.015 µg/mL (≈ 0.0282 µM) in the assay on Escherichia coli [8]; 4 µg/mL (≈ 7.52 µM) with Klebsiella pneumoniae [3]; 0.015 µg/mL (≈ 0.0282 µM) in the assay on Streptococcus pyogenes (setting [11]). Further, the MIC in the assay on Staphylococcus aureus [4] was determined as 1 µg/mL (≈ 1.88 µM); in the assay on Klebsiella pneumoniae [10], 0.015 µg/mL (≈ 0.0282 µM); in the assay on Staphylococcus aureus [6], 8 µg/mL (≈ 15 µM); in the assay with Streptococcus pneumoniae, 0.015 µg/mL (≈ 0.0282 µM).

As to `CO/N=C(\C(=O)N[C@@H]1C(=O)N2C(C(=O)[O-])=C(C[n+]3ccc4[nH]cnc4c3)CS[C@H]12)c1csc(N)n1`, the MIC stood at 2 µg/mL (≈ 3.89 µM) in the assay with Pseudomonas aeruginosa [7] (setting [12]); 8 µg/mL (≈ 15.5 µM) in the assay on Pseudomonas aeruginosa [1]; 8 µg/mL (≈ 15.5 µM) with Enterobacter cloacae [2]; 0.008 µg/mL (≈ 0.0155 µM) in the assay with Escherichia coli [8]; 8 µg/mL (≈ 15.5 µM) in the assay on Klebsiella pneumoniae [3]; 0.125 µg/mL (≈ 0.243 µM) in the assay on Serratia marcescens. Moreover, the MIC in the assay with Escherichia coli [9] is 0.008 µg/mL (≈ 0.0155 µM); with Streptococcus pyogenes (setting [11]) it was 0.008 µg/mL (≈ 0.0155 µM); in the assay with Staphylococcus aureus [4], 2 µg/mL (≈ 3.89 µM); in the assay with Klebsiella pneumoniae [10], 0.008 µg/mL (≈ 0.0155 µM); with Staphylococcus aureus [6], 2 µg/mL (≈ 3.89 µM); with Streptococcus pneumoniae, 0.008 µg/mL (≈ 0.0155 µM).

In the assay with Pseudomonas aeruginosa [7], `CO/N=C(\C(=O)N[C@@H]1C(=O)N2C(C(=O)[O-])=C(C[n+]3ccc(CC(=O)NO)cc3)CS[C@H]12)c1csc(N)n1` (stereo in doubt; 19) displayed an MIC of 2 µg/mL (≈ 3.65 µM).

`CO/N=C(\C(=O)N[C@@H]1C(=O)N2C(C(=O)[O-])=C(C[n+]3ccc4oc(C)nc4c3)CS[C@H]12)c1csc(N)n1`: the MIC in the assay on Pseudomonas aeruginosa [7] (setting [12]) was 4 µg/mL (≈ 7.55 µM); in the assay on Pseudomonas aeruginosa [1], 8 µg/mL (≈ 15.1 µM); in the assay on Enterobacter cloacae [2], 8 µg/mL (≈ 15.1 µM); in the assay on Klebsiella pneumoniae [3], 4 µg/mL (≈ 7.55 µM); in the assay on Streptococcus pyogenes (setting [11]) it was 0.015 µg/mL (≈ 0.0283 µM); in the assay with Staphylococcus aureus [4], 1 µg/mL (≈ 1.89 µM). Also, the MIC in the assay on Klebsiella pneumoniae [10] was found to be 0.015 µg/mL (≈ 0.0283 µM); in the assay with Enterococcus faecium, 128 µg/mL (≈ 242 µM); in the assay with Staphylococcus aureus [6], 8 µg/mL (≈ 15.1 µM); in the assay with Streptococcus pneumoniae, 0.015 µg/mL (≈ 0.0283 µM).

The record behind these values is ChEMBL document CHEMBL1124865, “Synthesis and biological evaluation of a series of parenteral 3'-quaternary ammonium cephalosporins” (J Med Chem, 1990).
